Drawing on ChEMBL document CHEMBL4043196, “Efficient synthesis of the GABAA receptor agonist trans-4-aminocrotonic acid (TACA)” (Bioorg Med Chem Lett, 2017), this text covers EC50 and Activity for three compounds.

pEC50: −log10 of the molar value. Activity calls are given as the source filed them. The calls are words filed in the database; no cut-off is given here.

Assay [1] is described as follows: Agonist activity at Heaemonchus contortus UNC-49B/C GABAA receptor expressed in Xenopus laevis oocytes by two-electrode voltage-clamp method. The assay is classed as cell-based. To be noted: Haemonchus contortus.
The next assay deals with Haemonchus contortus. Kind of assay: Agonist activity at Heaemonchus contortus UNC-49B/C GABAA receptor expressed in Xenopus laevis oocytes at 500 uM by two-electrode voltage-clamp method. The assay is classed as cell-based. For orientation: Two-electrode voltage clamp is typically applied to oocytes expressing channels or transporters.

Take `NC/C=C/C(=O)O` [t-4-AMINOCROTONIC ACID (TACA)]: in assay [1], the pEC50 is 3.54.
With `NCC(Cl)CC(=O)O` (stereo not drawn), in the assay with Haemonchus contortus, the result was inactive.
In the case of `NCC(Br)CC(=O)O` (stereo not drawn), in the assay with Haemonchus contortus, the result was inactive.

A word on the pEC50: it is the negative decadic logarithm of the EC50, by convention in mol/L. A low value points to a large EC50.
